The values that follow come from ChEMBL document CHEMBL1201862, “PubChem BioAssay data set” (2004).

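Results reflect a 48-hour exposure of cells in 96-well plates to compound at five concentrations. GI50 = concentration required for 50% inhibition of growth.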 Active and inactive are the calls of the source. Cut-off read from the data, not from the text of the source: active = GI50 up to about 1.1 µM and inactive = higher.

Common to all, as to test: growth of human tumour cells (NCI), 48 h
The subject of assay [1] is SNB-19.
The subject of assay [2] is MDA-MB-435.
Assay [3] relates to MDA-MB-231.
In assay [4] the test system is SR.
The test system of assay [5] is SF-295.
For assay [6], the system named is A498.
The subject of assay [7] is DU-145.
Assay [8] has as its system MCF7.
The subject of assay [9] is HCT-116.
For assay [10], the system named is Malme-3M.
The test system of assay [11] is SK-MEL-2.
The test system of assay [12] is SF-539.
Assay [13] relates to HCT-15.
Assay [14] deals with SK-OV-3.
Assay [15] deals with RXF 393.
Assay [16] concerns HT-29.
Assay [17] has as its system CAKI-1.
Assay [18] deals with MDA-N.
Assay [19] has as its system LOX IMVI.

With `Cc1ccc(C2(c3ccc(C)cc3)SC(=C(C#N)C#N)c3ccccc32)cc1`, the GI50 in assay [1] was > 100 µM (inactive); in [2], 5.31 µM (inactive); in [3], > 100 µM (inactive); in [4], 27.6 µM (inactive); in assay [5] it was 97.9 µM (inactive); in assay [6] it was > 100 µM (inactive). Moreover, the GI50 in [7] is > 100 µM (inactive); in assay [8], 81.1 µM (inactive); in [9] it was 13.2 µM (inactive); in assay [10], 87.9 µM (inactive); in assay [11], 2.9 µM (inactive); in assay [12], > 100 µM (inactive). Besides, the GI50 in assay [13] was 22.5 µM; in assay [14] it was > 100 µM (inactive); in assay [15], > 100 µM (inactive); in assay [16], 55.6 µM (inactive).

As for `COC(=N)CCCl`, the GI50 in [1], in [4], in [5], in assay [7], in [17] and in assay [8] was > 100 µM (inactive) throughout. The GI50 in assay [9] was > 100 µM (inactive); in assay [10], > 100 µM (inactive); in [12], > 100 µM (inactive); in assay [13] it was > 100 µM; in [14], > 100 µM (inactive); in assay [15], > 100 µM (inactive). Besides, the GI50 in assay [16] and in [18] was > 100 µM (inactive) each time.

As for `C=C1CC2CC(=O)C(O)C(C1)C2` (configuration not stated), the GI50 in [2], in assay [4], in assay [5], in [19], in assay [6] and in assay [7] was > 100 µM (inactive) each time. Moreover, the GI50 in assay [17] was > 100 µM (inactive); in assay [8] it was > 100 µM (inactive); in assay [9] it was > 100 µM (inactive); in [12], > 100 µM (inactive); in assay [13] it was > 100 µM; in [14] it was > 100 µM (inactive). The GI50 in assay [15], in [16] and in assay [18] was > 100 µM (inactive) in each case.

For `CC1CCc2c(sc3ncnc(N/N=C/c4ccc(Cl)cc4)c23)C1` (configuration not stated), the GI50 was 30.1 µM (inactive) in [1]; 21.6 µM (inactive) in [4]; 29.8 µM (inactive) in assay [5]; 22.1 µM (inactive) in assay [19]; 40.8 µM (inactive) in [17]; 19.3 µM (inactive) in [9]. Also, the GI50 in assay [10] was > 100 µM (inactive); in assay [11], 48.8 µM (inactive); in assay [12], > 10 µM (inactive); in assay [13], 32.3 µM; in assay [14] it was 35.6 µM (inactive); in assay [15], 29.6 µM (inactive). Further, in assay [16], the GI50 was 38.5 µM (inactive).

`O=C(O)CCC(NC(=O)c1ccc(OCc2nc3cc(C(F)(F)F)ccc3nc2-c2ccccc2)cc1)C(=O)O` (configuration not stated): the GI50 was > 100 µM (inactive) in [1]; > 100 µM (inactive) in [2]; > 100 µM (inactive) in assay [3]; 9.31 µM (inactive) in [4]; > 100 µM (inactive) in assay [5]; > 100 µM (inactive) in assay [19]. For the same molecule, the GI50 was > 100 µM (inactive) in assay [6]; > 100 µM (inactive) in [7]; 45.4 µM (inactive) in [17]; > 100 µM (inactive) in assay [8]; > 100 µM (inactive) in assay [9]; > 100 µM (inactive) in assay [10]. The GI50 was > 100 µM (inactive) in [11]; > 100 µM (inactive) in assay [12]; > 100 µM in assay [13]; > 100 µM (inactive) in [14]; > 100 µM (inactive) in [15]; > 100 µM (inactive) in assay [16].

On to `CCCCCCN1C(=O)CC(=O)N(CCCCCC)S1(=O)=O`, for which the GI50 in assay [1] is 41.9 µM (inactive); in assay [2] it was 22.3 µM (inactive); in assay [3], 17.1 µM (inactive); in [4] it was 26.9 µM (inactive); in assay [5], 18.1 µM (inactive); in [19], 13.6 µM (inactive). Besides, the GI50 in [6] is 14.7 µM (inactive); in [7] it was 65.8 µM (inactive); in [17] it was 22 µM (inactive); in assay [8], 36 µM (inactive); in assay [9], 29.6 µM (inactive); in [10], 23.5 µM (inactive). The GI50 in [11] is 12.7 µM (inactive); in assay [12] it was 19.8 µM (inactive); in [14] it was 21.8 µM (inactive); in [15], 16.4 µM (inactive); in assay [16] it was 21.6 µM (inactive).

Turning to `O=C(Cn1c2ccc(Br)cc2c2nc3ccccc3nc21)N/N=C/c1ccccc1`, the GI50 in assay [1] was 79.3 µM (inactive); in assay [2], > 100 µM (inactive); in assay [3], > 100 µM (inactive); in [4], 78.2 µM (inactive); in [5] it was 16.3 µM (inactive); in [6] it was > 100 µM (inactive). Besides, the GI50 was > 100 µM (inactive) in [7]; > 100 µM (inactive) in assay [17]; > 100 µM (inactive) in [8]; 83.6 µM (inactive) in assay [11]; 12.9 µM (inactive) in assay [12]; 31.1 µM (inactive) in assay [14]. In addition, the GI50 in [15] was 34.9 µM (inactive); in assay [16] it was > 100 µM (inactive).

Take `COc1cc(Nc2nc3ccccc3n3cccc23)cc(OC)c1OC`: the GI50 is 98.2 µM (inactive) in assay [1]; > 100 µM (inactive) in assay [2]; 27.1 µM (inactive) in assay [3]; > 100 µM (inactive) in [4]; 63.5 µM (inactive) in [5]; > 100 µM (inactive) in assay [19]. Further, the GI50 in [6], in [7], in assay [17], in [8], in assay [9] and in assay [10] was > 100 µM (inactive) each time. Also, the GI50 in assay [11] was 52.5 µM (inactive); in assay [12], > 100 µM (inactive); in assay [13], > 100 µM; in assay [14], 37.3 µM (inactive); in assay [15], 17.5 µM (inactive); in assay [16], > 100 µM (inactive).

As for `O=c1[nH]nc(-c2ccccc2)n1/N=C/c1cccc([N+](=O)[O-])c1`, the GI50 in assay [1] is 98.6 µM (inactive); in [2], > 100 µM (inactive); in assay [3] it was > 100 µM (inactive); in [4], 77.8 µM (inactive); in assay [5] it was 59.7 µM (inactive); in assay [19] it was > 100 µM (inactive). The GI50 in assay [6], in assay [7], in assay [17], in [8], in assay [9] and in [10] was > 100 µM (inactive) throughout. In addition, the GI50 is > 100 µM (inactive) in [11]; 30.1 µM (inactive) in [12]; > 100 µM in assay [13]; 14.9 µM (inactive) in [14]; 49.8 µM (inactive) in assay [15]; > 100 µM (inactive) in [16].

For `O/N=C\c1c(O)ccc2ccccc12`, the GI50 in assay [1] was > 100 µM (inactive); in assay [2] it was 65 µM (inactive); in assay [3], 46.3 µM (inactive); in assay [4], 21.2 µM (inactive); in assay [5], 41.7 µM (inactive); in [19], 45.8 µM (inactive). Also, the GI50 in [6] was 56.2 µM (inactive); in assay [17], 30.8 µM (inactive); in [8], 37.8 µM (inactive); in assay [9], 38.9 µM (inactive); in assay [10], 12.6 µM (inactive); in [12] it was 44 µM (inactive). For the same molecule, the GI50 in [13] is 32.2 µM; in assay [14], 36.9 µM (inactive); in [15], 35.2 µM (inactive); in [16], 54.5 µM (inactive); in [18], 66.5 µM (inactive).

With `CCOC(=O)C(NC(=O)NC(C(=O)OCC)C(=O)OCC)C(=O)OCC`, the GI50 in assay [1] was > 100 µM (inactive); in assay [2], 98.2 µM (inactive); in assay [4] it was > 100 µM (inactive); in assay [5] it was 49.9 µM (inactive); in assay [7] it was > 100 µM (inactive); in assay [17], > 100 µM (inactive). Besides, the GI50 in assay [8] was > 100 µM (inactive); in assay [9] it was > 100 µM (inactive); in [10] it was > 100 µM (inactive); in [11] it was > 100 µM (inactive); in assay [12] it was > 100 µM (inactive); in [13] it was > 100 µM. Besides, the GI50 in assay [14], in assay [15], in [16] and in [18] was > 100 µM (inactive) in each case.

Turning to `COc1cc(-c2c3c(cc4c2OCO4)[C@@H](Nc2ccc(-c4ccc(-c5ccc(N[C@@H]6c7cc8c(cc7C(c7cc(OC)c(O)c(OC)c7)[C@H]7C(=O)OC[C@H]67)OCO8)cc5)cc4)cc2)[C@H]2COC(=O)[C@@H]2C3)cc(OC)c1O` (some centres not stated), the GI50 in assay [1] was 2.96 µM (inactive); in [2] it was 1.69 µM (inactive); in [3] it was 2.19 µM (inactive); in assay [4] it was 2.2 µM (inactive); in assay [5] it was 1.77 µM (inactive); in [19], 4.13 µM (inactive). Further, the GI50 in assay [6] was 4.62 µM (inactive); in assay [7] it was 1.93 µM (inactive); in assay [17], 2.65 µM (inactive); in [8] it was 2.82 µM (inactive); in assay [9] it was 1.73 µM (inactive); in [10], 1.87 µM (inactive). Moreover, the GI50 was < 0.01 µM (active) in assay [12], 1.73 µM in [13], 2.65 µM (inactive) in [14] and 2.31 µM (inactive) in [16].
